Reference: patent publication US12391679B2, “Benzamide-substituted bicyclic imidazo- and pyrazolo-fused -pyridine, -pyrimide, and -pyridazine compounds for treatment of inflammatory diseases” (ONCO3R Therapeutics BV, priority 2019, dated 2025)
Read-outs that look alike come from different tables or passages of the source.

Tests used:
[1] = system: LPS-induced TNFα in monocytes; assay: Monocytes assay: LPS-triggered TNFα (ELISA); type: cell-based, human; settings: LPS-triggered TNFα inhibition
How it was run: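 TNFα secretion was triggered with 200 ng/mL LPS for 4 h in human blood CD14+ monocytes after 1 h compound pretreatment at 37 °C, with 0.2% final DMSO. Supernatants were analysed by streptavidin-HRP/luminol ELISA, and percentage inhibition at each concentration was derived relative to control wells.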

SIK2 = biological target: T1, SIK2 (Homo sapiens, UniProt Q9H0K1); assay: ADP-Glo kinase assay, SIK2; type: biochemical
T1 construct: purchased ThermoFisher Scientific PV4792
T1 sequence (Q9H0K1 whole entry): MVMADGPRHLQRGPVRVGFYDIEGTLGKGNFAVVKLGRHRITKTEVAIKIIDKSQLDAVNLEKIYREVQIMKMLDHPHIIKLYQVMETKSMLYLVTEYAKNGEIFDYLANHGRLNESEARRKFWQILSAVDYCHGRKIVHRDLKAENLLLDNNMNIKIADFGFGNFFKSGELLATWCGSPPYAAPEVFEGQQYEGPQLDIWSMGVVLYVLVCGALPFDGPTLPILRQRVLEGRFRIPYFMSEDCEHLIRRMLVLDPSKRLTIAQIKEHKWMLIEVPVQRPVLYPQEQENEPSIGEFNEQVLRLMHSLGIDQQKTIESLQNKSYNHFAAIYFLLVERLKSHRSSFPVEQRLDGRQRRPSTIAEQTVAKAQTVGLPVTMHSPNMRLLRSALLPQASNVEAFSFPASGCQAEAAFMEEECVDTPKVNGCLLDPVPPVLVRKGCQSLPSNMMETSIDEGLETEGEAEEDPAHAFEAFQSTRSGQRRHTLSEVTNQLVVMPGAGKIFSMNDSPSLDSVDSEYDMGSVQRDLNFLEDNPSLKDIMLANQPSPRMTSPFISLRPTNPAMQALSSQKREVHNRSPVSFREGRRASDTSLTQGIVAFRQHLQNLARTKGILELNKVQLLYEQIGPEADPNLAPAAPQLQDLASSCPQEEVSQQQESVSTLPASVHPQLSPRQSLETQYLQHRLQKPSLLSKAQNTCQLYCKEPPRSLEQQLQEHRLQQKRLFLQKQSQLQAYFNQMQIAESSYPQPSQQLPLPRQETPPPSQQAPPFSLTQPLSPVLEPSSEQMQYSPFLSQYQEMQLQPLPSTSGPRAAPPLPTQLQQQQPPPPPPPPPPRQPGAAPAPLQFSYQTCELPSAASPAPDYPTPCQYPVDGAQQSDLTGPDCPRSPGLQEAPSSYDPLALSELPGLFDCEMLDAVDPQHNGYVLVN
How it was run: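 Kinase reactions ran 120 min at room temperature after ATP addition to enzyme-substrate mix. Remaining ATP was depleted (40 min) and ADP converted to ATP for luciferase detection (30 min), signal rising with activity. Final 1% DMSO and 10 μM staurosporine served as negative and positive controls.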

[2] = ADP-Glo, AMARA 45 μM, 5 μM ATP, 120 min, average IC50

With COc1cc(-c2cnn3cc(C4(C(N)=O)CCC4)ccc23)cc(OC(F)F)c1C(=O)N[C@@H]1C[C@@H]1F [Cpd 254, 4-[6-(1-carbamoylcyclobutyl)pyrazolo[1,5-a]pyridin-3-yl]-2-(difluoromethoxy)-N-[(1R,2S)-2-fluorocyclopropyl]-6-methoxy-benzamide] the EC50 ([1]; Homo sapiens, Monocyte) was 100 to 1000 nM and the IC50 (SIK2) was greater than 500 nM.

With CCOC(C)(C)c1ccn2c(-c3cc(OC)c(C(=O)NC4CC4)c(OC(F)F)c3)cnc2c1 [Cpd 128, N-cyclopropyl-2-(difluoromethoxy)-4-[7-(1-ethoxy-1-methyl-ethyl)imidazo[1,2-a]pyridin-3-yl]-6-methoxy-benzamide] the EC50 ([1]; Homo sapiens, Monocyte) was 100 to 1000 nM and the IC50 (SIK2) was greater than 500 nM.

With COc1cc(-c2cnc3cc(C4COC4)ccn23)cc(OC(F)F)c1C(=O)N[C@@H]1C[C@@H]1F [Cpd 206, 2-(difluoromethoxy)-N-[(1R,2S)-2-fluorocyclopropyl]-6-methoxy-4-[7-(oxetan-3-yl)imidazo[1,2-a]pyridin-3-yl]benzamide] the EC50 ([1]; Homo sapiens, Monocyte) was 100 to 1000 nM and the IC50 (SIK2) was 10 to 100 nM.

For COc1cc(-c2cnc3cc(C4(O)CCOCC4)ccn23)cc(OC(F)F)c1C(=O)NC1CC1 [Cpd 170, N-cyclopropyl-2-(difluoromethoxy)-4-[7-(4-hydroxytetrahydropyran-4-yl)imidazo[1,2-a]pyridin-3-yl]-6-methoxy-benzamide], the EC50 ([1]; Homo sapiens, Monocyte) was 1000 to 5000 nM and the IC50 (SIK2) was greater than 500 nM.

COc1cc(-c2cnc3cc(C(C)(C)C#N)ccn23)cc(OC(F)F)c1C(=O)N1CC(F)(F)C1 [Cpd 69, 2-[3-[4-(3,3-difluoroazetidine-1-carbonyl)-3-(difluoromethoxy)-5-methoxy-phenyl]imidazo[1,2-a]pyridin-7-yl]-2-methyl-propanenitrile] was tested, and the EC50 ([1]; Homo sapiens, Monocyte) was 100 to 1000 nM and the IC50 (SIK2) was greater than 500 nM.

COc1cc(-c2cnc3cc(C4(C#N)CCOCC4)ccn23)cc(OC(F)F)c1C(=O)NC1CC1 [Cpd 116, 4-[7-(4-cyanotetrahydropyran-4-yl)imidazo[1,2-a]pyridin-3-yl]-N-cyclopropyl-2-(difluoromethoxy)-6-methoxy-benzamide] gave an EC50 ([1]; Homo sapiens, Monocyte) of 100 to 1000 nM and an IC50 (SIK2) greater than 500 nM.

COc1cc(-c2cnn3cc(C4COCCO4)ccc23)cc(OC(F)F)c1C(=O)NC1CC1 (centres unmarked) [Cpd 232, N-cyclopropyl-2-(difluoromethoxy)-4-[6-(1,4-dioxan-2-yl)pyrazolo[1,5-a]pyridin-3-yl]-6-methoxy-benzamide] gave an EC50 ([1]; Homo sapiens, Monocyte) of 100 to 1000 nM and an IC50 (SIK2) of 100 to 500 nM.

With COc1cc(-c2cnc3cc([C@@](C)(C#N)CO)ccn23)cc(OC(F)F)c1C(=O)NC1CC1 (single isomer, unassigned) [Cpd 190, 4-[7-(1-cyano-2-hydroxy-1-methyl-ethyl)imidazo[1,2-a]pyridin-3-yl]-N-cyclopropyl-2-(difluoromethoxy)-6-methoxy-benzamide] the EC50 [1] was 1000 to 5000 nM and the IC50 (SIK2; [2]) was greater than 500 nM.

With COc1cc(-c2cnc3cc(C(C)(C)O)ccn23)cc(OC(F)F)c1C(=O)N[C@@H]1C[C@@H]1F [Cpd 211, 2-(difluoromethoxy)-N-[(1R,2S)-2-fluorocyclopropyl]-4-[7-(1-hydroxy-1-methyl-ethyl)imidazo[1,2-a]pyridin-3-yl]-6-methoxy-benzamide] the EC50 ([1]; Homo sapiens, Monocyte) was 100 to 1000 nM and the IC50 (SIK2) was 100 to 500 nM.

In the case of COc1cc(-c2cnn3cc(C(C)(C)O)ccc23)cc(OC(F)F)c1C(=O)N[C@@H]1C[C@@H]1F [Cpd 227, 2-(difluoromethoxy)-N-[(1R,2S)-2-fluorocyclopropyl]-4-[6-(1-hydroxy-1-methyl-ethyl)pyrazolo[1,5-a]pyridin-3-yl]-6-methoxy-benzamide], the EC50 ([1]; Homo sapiens, Monocyte) is reported as 100 to 1000 nM and the IC50 (SIK2) is reported as 100 to 500 nM.

COc1cc(-c2cnn3cc(C4(N)CCC4)ccc23)cc(OC(F)F)c1C(=O)N[C@@H]1C[C@@H]1F [Cpd 261, 4-[6-(1-aminocyclobutyl)pyrazolo[1,5-a]pyridin-3-yl]-2-(difluoromethoxy)-N-[(1R,2S)-2-fluorocyclopropyl]-6-methoxy-benzamide] gave an EC50 ([1]; Homo sapiens, Monocyte) of 100 to 1000 nM and an IC50 (SIK2) greater than 500 nM.

In the case of COc1cc(-c2cnc3cc(C(C)(C)C#N)ccn23)cc(OC(F)F)c1C(=O)N1CC(C#N)C1 [Cpd 77, 1-[4-[7-(1-cyano-1-methyl-ethyl)imidazo[1,2-a]pyridin-3-yl]-2-(difluoromethoxy)-6-methoxy-benzoyl]azetidine-3-carbonitrile], the EC50 ([1]; Homo sapiens, Monocyte) is reported as 100 to 1000 nM and the IC50 (SIK2) is reported as greater than 500 nM.

In the case of COc1cc(-c2cnn3cc(C(C)(C)C#N)ccc23)cc(OC)c1C(=O)N[C@@H]1C[C@@H]1F [Cpd 245, 4-[6-(1-cyano-1-methyl-ethyl)pyrazolo[1,5-a]pyridin-3-yl]-N-[(1R,2S)-2-fluorocyclopropyl]-2,6-dimethoxy-benzamide], the EC50 ([1]; Homo sapiens, Monocyte) is reported as 100 to 1000 nM and the IC50 (SIK2) is reported as greater than 500 nM.

[2H]C([2H])([2H])C(C#N)(c1ccc2c(-c3cc(OC)c(C(=O)N[C@@H]4C[C@@H]4F)c(OC(F)F)c3)cnn2c1)C([2H])([2H])[2H] [Cpd 275, 4-[6-[1-cyano-2,2,2-trideuterio-1-(trideuteriomethyl)ethyl]pyrazolo[1,5-a]pyridin-3-yl]-2-(difluoromethoxy)-N-[(1R,2S)-2-fluorocyclopropyl]-6-methoxy-benzamide] gave an EC50 ([1]; Homo sapiens, Monocyte) of 100 to 1000 nM.

Molecule CC[C@](C)(O)c1ccn2c(-c3cc(OC)c(C(=O)NC4CC4)c(OC(F)F)c3)cnc2c1 (single isomer, unassigned) [Cpd 165, N-cyclopropyl-2-(difluoromethoxy)-4-[7-(1-hydroxy-1-methyl-propyl)imidazo[1,2-a]pyridin-3-yl]-6-methoxy-benzamide] has an EC50 [1] of 100 to 1000 nM and an IC50 (SIK2; [2]) greater than 500 nM.

Work on COc1cc(-c2cnc3cc(C4(C#N)CCOC4)ccn23)cc(OC(F)F)c1C(=O)NC1CC1 (centres unmarked) [Cpd 123, 4-[7-(3-cyanotetrahydrofuran-3-yl)imidazo[1,2-a]pyridin-3-yl]-N-cyclopropyl-2-(difluoromethoxy)-6-methoxy-benzamide] yielded an EC50 ([1]; Homo sapiens, Monocyte) of 100 to 1000 nM and an IC50 (SIK2) greater than 500 nM.

In the case of COc1cc(-c2cnn3cc(C(C)(C)COS(C)(=O)=O)ccc23)cc(OC(F)F)c1C(=O)N[C@@H]1C[C@@H]1F [Cpd 267, [2-[3-[3-(difluoromethoxy)-4-[[(1R,2S)-2-fluorocyclopropyl]carbamoyl]-5-methoxy-phenyl]pyrazolo[1,5-a]pyridin-6-yl]-2-methyl-propyl]methanesulfonate], the EC50 ([1]; Homo sapiens, Monocyte) is reported as 0.1 to 100 nM and the IC50 (SIK2) is reported as greater than 500 nM.

Work on COc1cc(-c2cnc3cc(C4CCC4)c(F)cn23)cc(OC(F)F)c1C(=O)NC1CC1 [Cpd 168, 4-(7-cyclobutyl-6-fluoro-imidazo[1,2-a]pyridin-3-yl)-N-cyclopropyl-2-(difluoromethoxy)-6-methoxy-benzamide] yielded an EC50 ([1]; Homo sapiens, Monocyte) of 100 to 1000 nM and an IC50 (SIK2) of 10 to 100 nM.

Work on COc1cc(-c2cnn3cc(C(C)(C)C#N)ccc23)cc(OC(F)F)c1C(=O)N[C@@H]1C[C@H]1F (single isomer, unassigned) [Cpd 258, 4-[6-(1-cyano-1-methyl-ethyl)pyrazolo[1,5-a]pyridin-3-yl]-2-(difluoromethoxy)-N-(2-fluorocyclopropyl)-6-methoxy-benzamide] yielded an EC50 [1] of 100 to 1000 nM.

With COc1cc(-c2cnn3cc(C(C)(C)C#N)ccc23)cc(OC(F)F)c1C(=O)N[C@@H]1C[C@@H]1F [Cpd 219, 4-[6-(1-cyano-1-methyl-ethyl)pyrazolo[1,5-a]pyridin-3-yl]-2-(difluoromethoxy)-N-[(1R,2S)-2-fluorocyclopropyl]-6-methoxy-benzamide] the EC50 ([1]; Homo sapiens, Monocyte) was 0.1 to 100 nM.

For COc1cc(-c2cnn3cc(C(C)(C)C#N)ccc23)cc(OC(F)F)c1C(=O)N[C@@H]1C[C@H]1F (single isomer, unassigned) [Cpd 257, 4-[6-(1-cyano-1-methyl-ethyl)pyrazolo[1,5-a]pyridin-3-yl]-2-(difluoromethoxy)-N-(2-fluorocyclopropyl)-6-methoxy-benzamide], the EC50 ([1]; Homo sapiens, Monocyte) was 100 to 1000 nM.
